Where “and” joins values, the source holds several entries; their conditions need not be identical. Equal entries are not always repeated.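 The compound was tested at five concentrations on cells cultured in 96-well plates, with a 48-hour exposure period. GI50 marks 50% less growth. At the TGI there is no net growth.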
Legend:
Assay in all cases: inhibition of tumour cell growth, NCI panel, 48 h
SK-MEL-5 melanoma = tested on: SK-MEL-5 melanoma
KM12 colon = tested on: KM12 colon
SF-295 CNS = tested on: SF-295 CNS
SK-MEL-28 melanoma = tested on: SK-MEL-28 melanoma
OVCAR-8 ovarian = tested on: OVCAR-8 ovarian
SN12C renal = tested on: SN12C renal
LOX IMVI melanoma = tested on: LOX IMVI melanoma
NCI-H522 lung = tested on: NCI-H522 lung
HT29 colon = tested on: HT29 colon
MOLT-4 leukemia = tested on: MOLT-4 leukemia

Row | Structure (SMILES) | TGI (SK-MEL-5 melanoma) [µM] | TGI (KM12 colon) | TGI (SF-295 CNS) [µM] | TGI (SK-MEL-28 melanoma) | TGI (OVCAR-8 ovarian) [µM] | TGI (SN12C renal) | TGI (LOX IMVI melanoma) [µM] | TGI (NCI-H522 lung) [µM] | TGI (HT29 colon) [µM] | GI50 (KM12 colon) [µM] | GI50 (SK-MEL-28 melanoma) [µM] | GI50 (OVCAR-8 ovarian) [µM] | GI50 (SN12C renal) [µM] | GI50 (LOX IMVI melanoma) [µM] | GI50 (NCI-H522 lung) [µM] | GI50 (MOLT-4 leukemia) [µM] | TGI (MOLT-4 leukemia) [µM] | GI50 (SK-MEL-5 melanoma) [µM] | GI50 (SF-295 CNS) [µM] | GI50 (HT29 colon) [µM]
1 | O=S(=O)(c1ccccc1)N1CCN(S(=O)(=O)c2ccccc2)c2ccccc21 | > 100 | > 100 µM | > 100 | > 100 µM | > 100 | > 100 µM | > 100 | > 100 | > 100 | – | – | – | – | – | – | – | – | – | – | –
2 | COc1cc(-c2ccc3cc(OC)c(OC)c(OC)c3c2)cc(OC)c1OC | – | > 100 µM | – | > 100 µM | > 100 | > 100 µM | > 100 | > 100 | – | 5.93 | > 100 | > 100 | > 100 | > 100 | 9.54 | > 100 | > 100 | – | – | –
3 | Cc1ccc(/C=C/C(=O)CCN(C)C)cc1 | 34.4 | 14 µM | > 100 | 33.8 µM | 62.2 | 32.1 µM | 31.6 | – | 33.4 | – | – | – | – | – | – | – | 51.7 | – | – | –
4 | COc1cc(C2CC(C)(O)Oc3cc4c(cc32)OCO4)cc(OC)c1OC (stereo unspecified) | 0.494 | 0.595 µM | – | > 100 µM | 6.01 | > 100 µM | > 100 | 0.661 | > 100 | – | – | – | – | – | – | – | > 100 | – | – | –
5 | Cc1ccc(Oc2ccc(C)cc2N)cc1 | > 100 | > 100 µM | > 100 | > 100 µM | > 100 | > 100 µM | > 100 | – | > 100 | – | – | – | – | – | – | – | > 100 | – | – | –
6 | O=C(Oc1ccc(Cl)cc1)c1ccccc1Nc1ccnc(C(F)(F)F)c1 | 36.2 | 23.1 µM | > 100 | – | 35.5 | 8.72 µM | – | 52.2 | – | 8.94 | – | 4.04 | 2.95 | – | 4.22 | > 100 | > 100 | 16.8 | 62.8 | –
7 | Cc1cc2c(C)[nH]nc2c(C(=O)O)c1C | – | > 100 µM | > 100 | > 100 µM | > 100 | > 100 µM | – | – | > 100 | – | – | – | – | – | – | – | > 100 | – | – | –
8 | C/C(=N/Nc1ccc([N+](=O)[O-])cc1[N+](=O)[O-])C(CC(C(=O)NCc1ccccc1)/C(C)=N\Nc1ccc([N+](=O)[O-])cc1[N+](=O)[O-])C(=O)NCc1ccccc1 (stereo unspecified) | – | 15 µM | 18.2 | 22.4 µM | 4.73 | 15.1 µM | – | – | 18.5 | – | – | – | – | – | – | – | – | – | – | –
9 | Cc1cccc(C)c1NC(=O)CCCC(=O)C1/C(=N/NC(=O)CC#N)CCC/C1=N\NC(=O)CC#N (stereo unspecified) | > 100 | > 100 µM | > 100 | > 100 µM | > 100 | > 100 µM | – | > 100 | > 100 | – | – | – | – | – | – | – | > 100 | – | – | –
10 | COc1ccc2nc(NC(=O)CSc3nnc4n3S(=O)(=O)c3ccccc3N4c3ccccc3)sc2c1 | > 100 | > 100 µM | > 100 | > 100 µM | > 100 | – | > 100 | > 100 | > 100 | > 100 | > 100 | > 100 | – | > 100 | 30.4 | > 100 | > 100 | > 100 | > 100 | > 100
11 | COc1nc(NC2OC(COC(C)=O)C(OC(C)=O)C(OC(C)=O)C2OC(C)=O)c2c(OC(C)=O)cc(=O)oc2n1 (stereo unspecified) | > 100 | > 100 µM | > 100 | – | > 100 | > 100 µM | > 100 | – | > 100 | – | – | – | – | – | – | – | > 100 | – | – | –
12 | CC(C)(C)c1cc2c(O)c3cccc4c(=O)c5cccc6c5-c(c34)c2c(c1)c6=O | – | > 100 µM | > 100 | – | > 100 | > 100 µM | > 100 | > 100 | > 100 | – | – | – | – | – | – | – | > 100 | – | – | –
13 | CC1=C2C(=C[C@@](C)(CO)[C@@H]2O)C(=O)[C@](C)(O)C12CC2 | 0.0183 | 0.105 µM and 0.568 µM | – | 0.0339 µM and 0.0146 µM | 0.0311 | 0.112 µM and 0.119 µM | 0.0376 | 0.0108 | 0.0286 | – | – | – | – | – | – | 0.0107 | – | – | – | –
14 | O=C(Nc1ccc(Oc2ccc(Nc3nc4ccccc4s3)cc2)cc1)Nc1ccc(Cl)c(C(F)(F)F)c1 | 2.79 | 3.34 µM | 3.41 | 3.2 µM | 7.29 | 3.03 µM | 2.76 | 3.39 | 3.23 | 1.51 | 1.57 | 2.22 | 1.42 | 1.42 | 1.51 | – | – | 1.45 | 1.66 | 1.72
15 | O=S(=O)(N/N=C/c1cccc(/C=N/NS(=O)(=O)c2ccccc2)c1)c1ccccc1 | > 100 | > 100 µM | > 100 | > 100 µM | > 100 | > 100 µM | > 100 | – | > 100 | – | – | – | – | – | – | – | > 100 | – | – | –
16 | CCCCN(CCCC)C(=O)C(=O)C(C(=O)c1ccc(OC)cc1)c1ccc(OC)cc1 (stereo unspecified) | > 100 | > 100 µM | > 100 | > 100 µM | > 100 | > 100 µM | > 100 | – | > 100 | – | – | – | – | – | – | – | > 100 | – | – | –
17 | CC(=O)O/N=C(/C)c1ccccc1O | – | > 100 µM | > 100 | > 100 µM | > 100 | > 100 µM | > 100 | > 100 | > 100 | – | – | – | – | – | – | – | > 100 | – | – | –
18 | CCCOc1cc2ccccc2cc1C(=O)Nc1nc(N)c2c(ccc3nccc32)[nH]1 | 1.04 | 1.53 µM | 1.26 | 2.36 µM | 1.69 | 3.22 µM | 2.02 | 0.0426 | 0.129 | 0.0448 | 1.01 | 0.203 | 1.42 | 0.0511 | 0.018 | – | – | 0.0413 | 0.0307 | 0.0341
19 | COC[C@H]1Cn2cc(-c3nc(Nc4ccnn4C)ncc3C)nc2C(=O)N1Cc1ccc(F)c(F)c1 | > 83.3 | > 100 µM | > 100 | – | > 100 | > 100 µM | > 100 | > 100 | > 100 | 0.586 | – | 98.2 | 11.1 | 0.119 | – | 23.9 | > 100 | 9.51 | > 100 | 0.0436
20 | CN(C)CCn1c2c3ccccc3ccc2c2oc(=O)c3ccccc3c21 | – | 37 µM | 20.8 | 18.4 µM | – | – | 27.7 | 27.6 | 16.6 | – | – | – | – | – | – | – | 7.25 | – | – | –

Reference: PubChem BioAssay (NCI)
